Read-outs that look alike come from different tables or passages of the source.
Assays:
[1] = molecular target: T1, human butyrylcholinesterase (hBuChE) (Homo sapiens, UniProt P06276); conditions: previously isolated narcikachnine-type alkaloids; cited from earlier work
[2] = molecular target: T1, human butyrylcholinesterase (hBuChE); assay: hBuChE inhibition assay (modified Ellman method, BuTChI substrate); type: biochemical; conditions: for inhibition at 100 µM / % Inhibition hBuChE ± SEM: tested at 100 µM compound concentration; for inhibition at 100 µM: read-out: % Inhibition hBuChE ± SEM; for IC50: mean ± SEM of three independent measurements, each in triplicate; for % Inhibition hBuChE ± SEM: 100 µM
[3] = tested on: POP; conditions: previously isolated narcikachnine-type alkaloids; cited from earlier work
[4] = indicated centrally active crossing of the BBB via passive diffusion; cited from earlier work

T1 sequence (P06276 29-602): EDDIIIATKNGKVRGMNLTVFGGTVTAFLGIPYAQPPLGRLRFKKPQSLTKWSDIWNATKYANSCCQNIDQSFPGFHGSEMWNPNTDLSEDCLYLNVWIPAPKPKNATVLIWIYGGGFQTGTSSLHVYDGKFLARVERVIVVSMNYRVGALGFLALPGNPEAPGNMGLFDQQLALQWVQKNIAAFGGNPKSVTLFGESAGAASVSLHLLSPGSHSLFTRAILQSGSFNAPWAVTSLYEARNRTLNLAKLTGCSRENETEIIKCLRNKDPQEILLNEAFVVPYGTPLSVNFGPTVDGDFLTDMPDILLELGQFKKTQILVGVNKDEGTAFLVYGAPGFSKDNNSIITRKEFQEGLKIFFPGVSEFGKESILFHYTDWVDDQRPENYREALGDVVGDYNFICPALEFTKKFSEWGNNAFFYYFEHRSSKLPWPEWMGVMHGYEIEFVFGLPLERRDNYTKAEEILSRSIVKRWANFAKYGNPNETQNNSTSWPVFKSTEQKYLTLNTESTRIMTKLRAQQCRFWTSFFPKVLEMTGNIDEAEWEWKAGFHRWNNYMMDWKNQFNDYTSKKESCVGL

SMILES	IC50 [1]	inhibition at 100 µM [2]	IC50 [3]	in vitro permeability (Pe) [4]	IC50 [2]	% Inhibition hBuChE ± SEM [2]
COc1ccc2c3c1OC1CC(O)CCC31CCN(Cc1cc3c(cc1-c1cccc4ccn(C)c14)OCO3)C2 (stereo not shown) [narcipavline]	24.4 ± 1.2 µM	–	–	–	–	–
COc1ccc2c3c1O[C@H]1C[C@@H](O)C=C[C@@]31CCN(C)C2 [galantamine]	–	68.2 ± 1.2%	–	–	–	–
COc1cc(-c2cccc3c2N(C)CC3)c(CN2CC[C@@]34C=C[C@H](O)C[C@@H]3Oc3c(OC)ccc(c34)C2)c(OC)c1OC [narcieliine]	1.3 ± 0.3 µM	–	163 ± 13 µM	14.1 ± 1.0 × 10^−6 cm·s^−1	–	–
COc1cc2c(cc1O)[C@@H](O)O[C@@H]1CC=C3CCN(C)[C@H]3[C@H]21 [9-O-demethyllycorenine (1), 9-O-demethyllycorenine]	–	30.2 ± 0.8%	–	–	> 100 µM	almost devoid of cholinesterase inhibitory activity
COc1ccc2c3c1OC1CC(=O)CCC31CCN(Cc1cc3c(cc1-c1cccc4c1N(C)CC4)OCO3)C2 (stereo not shown) [narcimatuline]	5.9 ± 0.2 µM	–	29.2 ± 1 µM	–	–	–
COc1cc(-c2cccc3c2N(C)CC3)c(CN2CC[C@@]34C=C[C@H](O)C[C@@H]3Oc3c(OC)ccc(c34)C2)cc1O [narciabduliine (2), narciabduliine]	–	> 90%	–	–	3.44 ± 0.02 µM	94.1 ± 0.2%

From PMC7956344, “Structure Elucidation and Cholinesterase Inhibition Activity of Two New Minor Amaryllidaceae Alkaloids” (Molecules, 2021)
